According to patent US20060293343A1, “Pyrimidine derivatives” (Asahi Kasei Pharma Corporation, priority 2005, published 2006):

Experiments:
PDE4 = test system: T1, PDE4; test: Inhibitory action of PDE4 enzyme activity (PDE4 purified from U937 cells); type: biochemical; settings: PDE4 fraction purified from U937 cells; [3H]-cAMP substrate; 30° C., 10 minutes
T1 construct: The PDE4 enzyme was purified from U937 cells that are the cells derived from lymphoma
Procedure: (1) Purification of PDE4 from U937 Cells
The PDE4 enzyme was purified from U937 cells that are the cells derived from lymphoma. U937 cells were suspended in buffer solution A (20 mM Tris-HCl(pH 6.5), 1 mM MgCl2, 0.1 mM EGTA, 3 mM 2-mercaptoethanol) containing protease. inhibitor cocktail (manufactured by Sigma Co.), and a soluble fraction was obtained by centrifugation after ultrasonic disintegration (100,000 G, 30 minutes, 4° C.). […] Each fraction was tested for the cAMP metabolized PDE activity to identify the fractions containing PDE4 enzyme.
(2) Measurement of Inhibitory Activity of PDE4 Enzyme Activity
A desired concentration of the test compound was allowed to react in a reaction mixture (100 μL; 40 mM Tris-HCl (pH 7.4), 5 MM MgCl2, 4 mM 2-mercaptoethanol, […] cAMP, 0.83 μCi [^3H]-cAMP and PDE4 fraction) at 30° C. for 10 minutes. The enzyme reaction was stopped by adding 25 μL of trichloroacetic acid to the reaction mixture. The reaction solution was charged on a neutral alumina column equilibrated with 0.1 M of 2-[[tris(hydroxylmethyl)methyl]-amino]-1-ethanesulfonic acid (TES) buffer (pH 8.0) and, after washing the column with a sufficient amount of 0.1 M TES buffer solution, the column was eluted with 2N NaOH. A 500 μL aliquot of the eluate containing [^3H]-5′AMP product was filled in a scintillation vial containing the scintillation cocktail (5 ml, manufactured by Perkin Elmer Co.) to measure radioactivity. […] The inhibitory action of PDE4 enzyme activity was expressed by IC50 (nM). Ex. No. in Table 8 denotes the example No.

[1] = test system: TNF-α production in LPS-stimulated mouse mononuclear cells; test: Inhibitory action of TNF-α production using mouse mononuclear cells (in vitro); type: cell-based; settings: mouse mononuclear cells from peripheral blood of C3H/He mouse; LPS 5 μg/mL, 21 hours; TNF-α ELISA; read-out: IC50 (nM), suppression action of TNF-α production
Procedure: Mouse mononuclear cells were isolated from the peripheral blood of C3H/He mouse (manufactured by Japan SLC Co., male), and were suspended in a culture medium (trade name RPMI 1640 manufactured by Gibco Co.) containing 10% bovine serum. The cells were seeded in a 96 well plate as 50,000 cells/well, the test compound was added at a desired concentration, and the plate was allowed to stand in an incubator containing 5% CO2 at .37° C. for 15 minutes. LPS was added thereafter at a final concentration of 5 μg/mL, and the plate was allowed to stand in the incubator for 21 hours.
The culture medium containing produced TNF-α was retrieved, and the amount of TNF-α was measured according to the protocol attached to mouse TNF-α ELISA kit (manufactured by R & D Systems Co.). […] The suppression action of TNF-α was expressed-by […] (nM). Ex. No. in Table 9 denotes the example No.

[2] = test system: TNF-α production induced by LPS; test: Inhibitory action of TNF-α production (in vivo) induced by LPS using mouse; settings: C3H/He mouse; orally administered 60 minutes before LPS 10 μg intraperitoneally; plasma TNF-α 90 minutes after LPS; read-out: ED50 (mg/kg), suppression action of TNF-α production
Procedure: C3H/He mouse (manufactured by Japan SLC Co., male) was used as a test animal. A desired concentration of the test sample was suspended in 0.5% methyl cellulose solution. The weight of the mouse was measured, and the test compound solution was orally administered at a dosage of 10 mL/kg while only 0.5% methyl cellulose was administered to the reference group. One group contained 5 to 7 mice. LPS was dissolved in physiological saline, and 10 μg was intraperitoneally administered to each mouse. The test compound was administered first, then LPS was administered 60 minutes thereafter. After 90 minutes, the blood was sampled from the large abdominal vein with the heparin, and a plasma was obtained by centrifugation. The content of TNF-α in the plasma was measured according to the protocol attached to TNF-α ELISA kit (manufactured by R & D System Co.). […] The suppression action of TNF-α production was represented by ED50 (mg/kg). Ex. No. in Table 11 denotes the example No.

In the case of `C=CCc1c(C)nc(-c2cccs2)nc1Nc1ccc2cc(C(=O)O)ccc2c1` [Example 3], the IC50 (PDE4) is reported as 356 nM and the IC50 [1] is reported as 1900 nM.
In the case of `CCc1c(C)nc(-c2cccs2)nc1Nc1ccc(C(=O)O)cc1` [Example 5], the IC50 (PDE4) is reported as 1390 nM and the IC50 [1] is reported as 265 nM.
Compound `CCc1c(C)nc(-c2cccs2)nc1Nc1ccc(CC(=O)O)cc1` [Example 6] has an IC50 (PDE4) of 2940 nM and an IC50 [1] of 4930 nM.
Work on `CCc1c(C)nc(-c2cccs2)nc1Nc1ccc2cc(C(=O)O)ccc2c1` [Example 7] yielded an IC50 (PDE4) of 409 nM and an IC50 [1] of 267 nM.
`C=CCc1c(C)nc(-c2ccsc2)nc1Nc1ccc(C(=O)O)cc1` [Example 11] was tested, and the IC50 (PDE4) was 1170 nM, the IC50 [1] was 790 nM and the ED50 [2] was 26 mg/kg.
Compound `CCCc1c(CC)nc(-c2ccsc2)nc1Nc1ccc(C(=O)O)cc1` [Example 15] has an IC50 (PDE4) of 490 nM, an IC50 [1] of 55 nM and an ED50 [2] of 13 mg/kg.
For `CCc1c(C)nc(-c2ccsc2)nc1Nc1ccc2cc(C(=O)O)ccc2c1` [Example 20], the IC50 (PDE4) was 191 nM and the IC50 [1] was 289 nM.
`C=CCc1c(C)nc(-c2ccoc2)nc1Nc1ccc2cc(C(=O)O)ccc2c1` [Example 23] was tested, and the IC50 (PDE4) was 633 nM and the IC50 [1] was 2110 nM.
Compound `CCc1c(C)nc(-c2ccoc2)nc1Nc1ccc(C(=O)O)cc1` [Example 24] has an IC50 (PDE4) of 3250 nM and an IC50 [1] of 865 nM.
With `CCc1c(C)nc(-c2ccoc2)nc1Nc1ccc2cc(C(=O)O)ccc2c1` [Example 26] the IC50 (PDE4) was 312 nM and the IC50 [1] was 219 nM.
Compound `CCc1c(C)nc(-c2ccc(C(=O)OC)s2)nc1Nc1ccc(C(=O)O)cc1` [Example 50] has an IC50 [1] of 249 nM.
In the case of `C=CCc1c(CC)nc(-c2ccc(OC)s2)nc1Nc1ccc(C(=O)O)cc1` [Example 54], the IC50 [1] is reported as 239 nM.
`C=CCc1c(CCC)nc(-c2ccsc2)nc1Nc1ccc(C(=O)O)cc1` [Example 68] was tested, and the IC50 [1] was 247 nM.
`CCCc1nc(-c2ccsc2)nc(Nc2ccc3cc(C(=O)O)ccc3c2)c1CC` [Example 73] gave an IC50 [1] of 211 nM.
`CCc1c(C)nc(-c2ccc(SC)s2)nc1Nc1ccc2cc(C(=O)O)ccc2c1` [Example 79] showed an IC50 (PDE4) of 117 nM.
In the case of `CCc1nc(-c2ccc(OC)s2)nc(Nc2ccc(C(=O)O)cc2)c1CC` [Example 80], the IC50 [1] is reported as 73 nM.
Compound `CCc1nc(-c2ccc(OC)s2)nc(Nc2ccc3cc(C(=O)O)ccc3c2)c1CC` [Example 82] has an IC50 (PDE4) of 90 nM and an IC50 [1] of 57 nM.
Compound `CCc1nc(-c2cccs2)nc(Nc2ccc3cc(C(=O)O)ccc3c2)c1CC` [Example 85] has an IC50 (PDE4) of 76 nM and an IC50 [1] of 29 nM.
Compound `CCc1nc(-c2ccoc2)nc(Nc2ccc(C(=O)O)cc2)c1CC` [Example 86] has an IC50 [1] of 67 nM and an ED50 [2] of 8 mg/kg.
`C=CCc1c(CC)nc(-c2ccoc2)nc1Nc1ccc(C(=O)O)cc1` [Example 103] showed an ED50 [2] of 37 mg/kg.
With `C=CCc1c(CC)nc(-c2ccoc2)nc1Nc1ccc2cc(C(=O)O)ccc2c1` [Example 105] the IC50 (PDE4) was 116 nM.
Work on `CCc1nc(-c2ccc(C)s2)nc(Nc2ccc(CC(=O)O)cc2)c1CC` [Example 110] yielded an ED50 [2] of 31 mg/kg.
Compound `CCc1nc(-c2ccc(C)s2)nc(Nc2ccc3cc(C(=O)O)ccc3c2)c1CC` [Example 111] has an IC50 [1] of 58 nM and an ED50 [2] of 15 mg/kg.
With `CCc1c(C)nc(-c2cccs2)nc1Nc1ccc(CC(=O)Nc2ccccc2OC)cc1` [Example 113] the IC50 [1] was 34 nM.
`CCc1c(C)nc(-c2cccs2)nc1Nc1ccc(CC(=O)NO)cc1` [Example 116] gave an IC50 [1] of 10 nM and an ED50 [2] of 12 mg/kg.
`CCc1nc(-c2ccc(SC)s2)nc(Nc2ccc(CC(=O)O)cc2)c1CC` [Example 128] showed an ED50 [2] of 24 mg/kg.
Work on `CCc1nc(-c2ccc(SC)s2)nc(Nc2ccc3cc(C(=O)O)ccc3c2)c1CC` [Example 129] yielded an IC50 [1] of 85 nM.
For `CCc1nc(-c2cc(C)c(C)s2)nc(Nc2ccc3cc(C(=O)O)ccc3c2)c1CC` [Example 155], the IC50 (PDE4) was 845 nM.
In the case of `CCc1nc(-c2cc(C)c(C)o2)nc(Nc2ccc3cc(C(=O)O)ccc3c2)c1CC` [Example 157], the IC50 [1] is reported as 80 nM.
In the case of `CCc1c(C)nc(-c2ccc(Br)s2)nc1Nc1ccc(CC(N)=O)cc1` [Example 181], the IC50 [1] is reported as 57 nM.
`C=CCc1c(CC)nc(-c2cc(OC)cs2)nc1Nc1ccc2cc(C(=O)O)ccc2c1` [Example 185] showed an IC50 (PDE4) of 156 nM.
With `CCc1nc(-c2ccco2)nc(Nc2ccc(C(=O)O)cc2)c1CC` [Example 186] the IC50 [1] was 80 nM.
In the case of `CCc1nc(-c2ccco2)nc(Nc2ccc3cc(C(=O)O)ccc3c2)c1CC` [Example 188], the IC50 (PDE4) is reported as 59 nM and the IC50 [1] is reported as 46 nM.
`C=CCc1c(CC)nc(-c2ccco2)nc1Nc1ccc2cc(C(=O)O)ccc2c1` [Example 191] showed an IC50 (PDE4) of 90 nM and an IC50 [1] of 44 nM.
For `CCc1c(C)nc(-c2ccc(Br)s2)nc1Nc1ccc(CC(=O)NO)cc1` [Example 192], the IC50 (PDE4) was 89 nM.
`CCc1c(C)nc(-c2cc(Br)cs2)nc1Nc1ccc(CC(=O)NO)cc1` [Example 193] was tested, and the IC50 (PDE4) was 70 nM and the IC50 [1] was 39 nM.
In the case of `CCc1ccc(-c2nc(CC)c(CC)c(Nc3ccc4cc(C(=O)O)ccc4c3)n2)s1` [Example 198], the IC50 (PDE4) is reported as 105 nM.
Work on `C=CCc1c(CC)nc(-c2ccc(CC)s2)nc1Nc1ccc2cc(C(=O)O)ccc2c1` [Example 201] yielded an IC50 (PDE4) of 133 nM.
For `CCc1c(C)nc(-c2ccc(OC)s2)nc1Nc1ccc(CC(=O)NO)cc1` [Example 203], the IC50 [1] was 86 nM.
Work on `CCc1c(C)nc(-c2ccc(C)s2)nc1Nc1ccc(CC(=O)O)cc1` [Example 205] yielded an ED50 [2] of 21 mg/kg.
Work on `C=CCc1c(CC)nc(-c2ccc(C)s2)nc1Nc1ccc2cc(C(=O)O)ccc2c1` [Example 209] yielded an IC50 (PDE4) of 192 nM.
`CCc1nc(-c2ccc(Br)s2)nc(Nc2ccc(C(=O)O)cc2)c1CC` [Example 220] showed an IC50 [1] of 59 nM and an ED50 [2] of 41 mg/kg.
`CCc1nc(-c2ccc(Br)s2)nc(Nc2ccc(CC(=O)O)cc2)c1CC` [Example 221] gave an IC50 [1] of 53 nM and an ED50 [2] of 24 mg/kg.
`CCc1nc(-c2ccc(Cc3ccccc3)s2)nc(Nc2ccc3cc(C(=O)O)ccc3c2)c1CC` [Example 234] showed an IC50 [1] of 48 nM.
`CCc1nc(-c2cc(C)c(Br)s2)nc(Nc2ccc(C(=O)O)cc2)c1CC` [Example 238] showed an ED50 [2] of 20 mg/kg.
In the case of `CCc1nc(-c2cc(C)c(Br)s2)nc(Nc2ccc(CC(=O)O)cc2)c1CC` [Example 239], the ED50 [2] is reported as 22 mg/kg.
Work on `C=CCc1c(C)nc(-c2ccc(Br)s2)nc1Nc1ccc(CC(=O)O)cc1` [Example 241] yielded an ED50 [2] of 39 mg/kg.
Compound `CCc1c(C)nc(-c2ccc(Cl)s2)nc1Nc1ccc(CC(=O)O)cc1` [Example 253] has an IC50 [1] of 504 nM and an ED50 [2] of 14 mg/kg.
Work on `C=CCc1c(C)nc(-c2ccc(Cl)s2)nc1Nc1ccc(CC(=O)O)cc1` [Example 254] yielded an ED50 [2] of 38 mg/kg.
`C=CCc1c(C)nc(-c2cc(C)c(Br)s2)nc1Nc1ccc(CC(=O)O)cc1` [Example 274] was tested, and the ED50 [2] was 25 mg/kg.
In the case of `CCc1nc(-c2ccc(Cl)s2)nc(Nc2ccc(CC(=O)O)cc2)c1CC` [Example 289], the ED50 [2] is reported as 18 mg/kg.
`CCc1c(C)nc(-c2cc(C)c(I)s2)nc1Nc1ccc(CC(=O)O)cc1` [Example 292] was tested, and the ED50 [2] was 25 mg/kg.
Compound `CCc1nc(-c2cc(C)c(I)s2)nc(Nc2ccc(CC(=O)O)cc2)c1CC` [Example 293] has an ED50 [2] of 18 mg/kg.
`CCc1c(C)nc(-c2cccs2)nc1Nc1ccc(CC(=O)O)cc1F` [Example 344] gave an ED50 [2] of 27 mg/kg.
In the case of `CCc1c(C)nc(-c2ccc(I)s2)nc1Nc1ccc(CC(=O)O)cc1F` [Example 345], the ED50 [2] is reported as 37 mg/kg.
With `CCc1c(C)nc(-c2ccc(F)s2)nc1Nc1ccc(CC(=O)O)cc1` [Example 373] the ED50 [2] was 19 mg/kg.
For `CCc1c(C)nc(-c2ccc(F)s2)nc1Nc1ccc(CC(=O)O)cc1F` [Example 376], the ED50 [2] was 12 mg/kg.
`Cc1nc(-c2ccc(Cl)s2)nc(Nc2ccc(CC(=O)O)cc2)c1CO` [Example 386] showed an ED50 [2] of 50 mg/kg.
